In article PMC3685428 (ACS medicinal chemistry letters, 2012):

Legend:
P. falciparum 3D7 strain = assay: Proliferation of erythrocyte-stage P. falciparum, 3D7 strain; assay type: cell-based; settings: Plasmodium falciparum; for IC50: 3D7, Erythrocyte, read-out: IC50 against P. falciparum proliferation, 3D7 strain
P. falciparum Dd2 strain = assay: Proliferation of erythrocyte-stage P. falciparum, Dd2 strain; assay type: cell-based; settings: Plasmodium falciparum; for IC50: DD2, Erythrocyte, read-out: IC50 against P. falciparum proliferation, Dd2 strain
[1] = molecular target: T1, recombinant P. falciparum DXR (PfDXR) (Plasmodium falciparum, UniProt O96693); assay: Enzyme inhibition of recombinant P. falciparum DXR; assay type: biochemical; settings: relative to compound 7
T1 sequence (O96693 73-488): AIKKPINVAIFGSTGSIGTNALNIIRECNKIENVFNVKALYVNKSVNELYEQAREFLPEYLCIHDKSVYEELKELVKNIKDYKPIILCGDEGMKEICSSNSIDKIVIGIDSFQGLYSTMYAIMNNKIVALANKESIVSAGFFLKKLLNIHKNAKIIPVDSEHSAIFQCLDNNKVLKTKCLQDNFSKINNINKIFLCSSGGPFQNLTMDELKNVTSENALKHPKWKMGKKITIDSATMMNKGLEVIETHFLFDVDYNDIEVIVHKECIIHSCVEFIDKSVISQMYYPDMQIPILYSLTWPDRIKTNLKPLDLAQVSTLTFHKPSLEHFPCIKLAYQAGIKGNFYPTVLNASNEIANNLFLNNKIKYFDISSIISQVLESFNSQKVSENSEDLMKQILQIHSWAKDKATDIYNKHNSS

[2] = background statement, cited from earlier work
P. falciparum malaria = settings: clinical trials, in combination with clindamycin ref 7, 8; cited from earlier work

| SMILES | IC50 (P. falciparum 3D7 strain) [µM] | EC50 (P. falciparum 3D7 strain; 3D7, read-out: EC50 against P. falciparum 3D7) [µM] | IC50 (P. falciparum Dd2 strain) [µM] | Fold more inhibitory potency than compound 7 against PfDXR [1] | EC50 (P. falciparum Dd2 strain; DD2, read-out: EC50 against P. falciparum Dd2) [µM] | Oral availability [2] | Half life in plasma ([2]; plasma) | Clinical efficacy against P. falciparum malaria (P. falciparum malaria) |
| --- | --- | --- | --- | --- | --- | --- | --- | --- |
| CC(=O)N(O)CCC(c1ccncc1)P(=O)(O)O (centres unmarked) [5p] | 0.63 | 0.31 | 0.46 | ~ 6 × | – | – | – | – |
| CC(=O)N(O)CCC(c1cccnc1)P(=O)(O)O (centres unmarked) [5m] | 0.44 | – | 0.31 | – | 0.63 | – | – | – |
| CCN(CC)CCCC(C)Nc1ccnc2cc(Cl)ccc12 (centres unmarked) [CQ, chloroquine, reference compound] | 0.021 | – | 0.12 | – | – | – | – | – |
| O=CN(O)CCC(c1ccncc1)P(=O)(O)O (centres unmarked) [4p] | 0.18 | – | 0.17 | – | – | – | – | – |
| CC(=O)N(O)CCC(c1ccccc1)P(=O)(O)O (centres unmarked) [compound 7] | 3.5 | – | 1.7 | – | – | – | – | – |
| O=CN(O)CCCP(=O)(O)O [compound 1, Fosmidomycin] | 1.17 | – | 0.44 | – | – | poor | ~ 1 h | effective against P. falciparum malaria |
| O=CN(O)CCC(c1cccnc1)P(=O)(O)O (centres unmarked) [4m] | 0.34 | – | 0.18 | – | – | – | – | – |
